For one assay, the system named is COLO 205. Description: Antiproliferative activity against human COLO 205 cells assessed as cell growth inhibition at 10 uM by SRB assay relative to control. It is filed as functional. In general terms: Sulforhodamine B stains cellular protein and so reports cell mass.
Assay [1] deals with HT-29. As to the kind of experiment: Antiproliferative activity against human HT-29 cells assessed as cell growth inhibition by SRB assay. Type of assay: functional.
The next assay deals with EKVX. As to the kind of experiment: Antiproliferative activity against human EKVX cells assessed as cell growth inhibition at 10 uM by SRB assay. Type of assay: functional.
Another assay relates to A498. As to the kind of experiment: Antiproliferative activity against human A498 cells assessed as inhibition of cell growth at 10 uM by SRB assay relative to control. Type of assay: functional.
The target of assay [2] is Mitogen-activated protein kinase kinase kinase 8 (Homo sapiens) (UniProt P41279). As to the kind of experiment: Inhibition of MAP3K8 (unknown origin) at 10 uM by biochemical hotspot kinase assay relative to control.
The next assay deals with Renal cancer cell line. Description: Antiproliferative activity against human renal cancer cells assessed as cell growth inhibition at 10 uM by SRB assay relative to control. It is filed as functional.
The target in assay [3] is Ephrin type-A receptor 3 (Homo sapiens) (UniProt P29320). As to the kind of experiment: Inhibition of EPHA3 (unknown origin) at 10 uM by biochemical hotspot kinase assay relative to control.
For assay [4], the target named is RAC-alpha serine/threonine-protein kinase (Homo sapiens) (UniProt P31749). Description: Inhibition of AKT1 (unknown origin) at 10 uM by biochemical hotspot kinase assay relative to control.
The target of assay [5] is Mitogen-activated protein kinase kinase kinase kinase 4 (Homo sapiens) (UniProt O95819). As to the kind of experiment: Inhibition of HGK (unknown origin) at 10 uM by biochemical hotspot kinase assay relative to control.
Assay [6] addresses Serine/threonine-protein kinase 3 (Homo sapiens) (UniProt Q13188). As to the kind of experiment: Inhibition of MST2 (unknown origin) at 10 uM by biochemical hotspot kinase assay relative to control.
Assay [7] addresses Fibroblast growth factor receptor 1 (Homo sapiens) (UniProt P11362). Description: Inhibition of FGFR1 (unknown origin) at 10 uM by biochemical hotspot kinase assay relative to control.
Assay [8] has as its target Mitogen-activated protein kinase 3 (Homo sapiens) (UniProt P27361). As to the kind of experiment: Inhibition of ERK1 (unknown origin) at 10 uM by biochemical hotspot kinase assay.
A further assay has as its system Malme-3M. As to the kind of experiment: Antiproliferative activity against human Malme-3M cells assessed as cell growth inhibition at 10 uM by SRB assay relative to control. Type of assay: functional.
The subject of the next assay is MDA-MB-435. Description: Antiproliferative activity against human MDA-MB-435 cells assessed as cell growth inhibition at 10 uM by SRB assay relative to control. Type of assay: functional.
In assay [9] the target is Receptor-interacting serine/threonine-protein kinase 2 (Homo sapiens) (UniProt O43353). Description: Inhibition of RIPK2 (unknown origin) at 10 uM by biochemical hotspot kinase assay relative to control.
The target of assay [10] is Cyclin-dependent kinase 2/cyclin A (Homo sapiens) (UniProt P24941+P20248+P78396). As to the kind of experiment: Inhibition of CDK2/cyclin A (unknown origin) at 10 uM by biochemical hotspot kinase assay. Type of assay: protein-complex assay.
Assay [11] has as its target Mitogen-activated protein kinase 14 (Homo sapiens) (UniProt Q16539). Description: Inhibition of p38a (unknown origin) at 10 uM by biochemical hotspot kinase assay.
Assay [12] concerns HT-29. As to the kind of experiment: Induction of cell cycle arrest in human HT-29 cells assessed as accumulation of cells at G1 phase at 5 uM incubated for 24 hrs by PI staining based analysis (reference value: 40.3%). It is filed as functional.
Assay [13] concerns the target Serine/threonine-protein kinase ICK (Homo sapiens) (UniProt Q9UPZ9). Description: Inhibition of LCK2 (unknown origin) at 10 uM by biochemical hotspot kinase assay.
Assay [14] concerns the target Interleukin-1 receptor-associated kinase 4 (Homo sapiens) (UniProt Q9NWZ3). Description: Inhibition of IRAK4 (unknown origin) at 10 uM by biochemical hotspot kinase assay.
The target of assay [15] is Homeodomain-interacting protein kinase 1 (Homo sapiens) (UniProt Q86Z02). Description: Inhibition of HIPK1 (unknown origin) at 10 uM by biochemical hotspot kinase assay.
For assay [16], the target named is Ephrin type-B receptor 4 (Homo sapiens) (UniProt P54760). As to the kind of experiment: Inhibition of EPHB4 (unknown origin) at 10 uM by biochemical hotspot kinase assay.
Assay [17] has as its target Receptor tyrosine-protein kinase erbB-4 (Homo sapiens) (UniProt Q15303). As to the kind of experiment: Inhibition of ERBB4 (unknown origin) at 10 uM by biochemical hotspot kinase assay relative to control.
Assay [18] addresses Rho-associated protein kinase 1 (Homo sapiens) (UniProt Q13464). Description: Inhibition of ROCK1 (unknown origin) at 10 uM by biochemical hotspot kinase assay.
A further assay relates to UACC-62. As to the kind of experiment: Antiproliferative activity against human UACC-62 cells assessed as cell growth inhibition at 10 uM by SRB assay relative to control. It is filed as functional.
The test system of another assay is Melanoma cell line. As to the kind of experiment: Antiproliferative activity against human melanoma cells assessed as cell growth inhibition at 10 uM by SRB assay relative to control. Type of assay: functional.
The target of assay [19] is Serine/threonine-protein kinase pim-1 (Homo sapiens) (UniProt P11309). Description: Inhibition of PIM1 (unknown origin) at 10 uM by biochemical hotspot kinase assay relative to control.
The target in assay [20] is Tyrosine-protein kinase JAK3 (Homo sapiens) (UniProt P52333). Description: Inhibition of JAK3 (unknown origin) at 10 uM by biochemical hotspot kinase assay.
Assay [21] deals with RAF proto-oncogene serine/threonine-protein kinase (Homo sapiens) (UniProt P04049). As to the kind of experiment: Inhibition of c-RAF (unknown origin) at 10 uM by biochemical hotspot kinase assay relative to control.
The target of assay [22] is Serine/threonine-protein kinase PAK 1 (Homo sapiens) (UniProt Q13153). Description: Inhibition of PAK1 (unknown origin) at 10 uM by biochemical hotspot kinase assay.
For another assay, the system named is HCC 2998. As to the kind of experiment: Antiproliferative activity against human HCC 2998 cells assessed as cell growth inhibition at 10 uM by SRB assay. It is filed as functional, cell-based.
Assay [23] has as its system NCI-H460. Description: Antiproliferative activity against human NCI-H460 cells assessed as cell growth inhibition at 10 uM by SRB assay. Type of assay: functional, cell-based.
Assay [24] has as its target Tyrosine-protein kinase Lyn (Homo sapiens) (UniProt P07948). As to the kind of experiment: Inhibition of LYN (unknown origin) at 10 uM by biochemical hotspot kinase assay.
The target in assay [25] is High affinity nerve growth factor receptor (Homo sapiens) (UniProt P04629). Description: Inhibition of TrkA (unknown origin) at 10 uM by biochemical hotspot kinase assay.
The subject of the next assay is SK-OV-3. Description: Antiproliferative activity against human SK-OV-3 cells assessed as inhibition of cell growth at 10 uM by SRB assay relative to control. Type of assay: functional.
The test system of another assay is TK-10. Description: Antiproliferative activity against human TK-10 cells assessed as inhibition of cell growth at 10 uM by SRB assay relative to control. It is filed as functional.
For assay [26], the system named is NCI-H460. Description: Antiproliferative activity against human NCI-H460 cells assessed as cell growth inhibition at 10 uM by SRB assay relative to control. It is filed as functional.
Another assay has as its system SF-268. As to the kind of experiment: Antiproliferative activity against human SF-268 cells assessed as cell growth inhibition at 10 uM by SRB assay relative to control. It is filed as functional.
For the next assay, the system named is A549. As to the kind of experiment: Antiproliferative activity against human A549 cells assessed as cell growth inhibition at 10 uM by SRB assay relative to control. Type of assay: functional.

Consider two molecules from ChEMBL document CHEMBL5260845, “Flavone-based arylamides as potential anticancers: Design, synthesis and in vitro cell-based/cell-free evaluations” (2020).

Active and inactive are the calls of the source. No cut-off for these calls is given here.

Sequence of Serine/threonine-protein kinase PAK 1 (Homo sapiens) (Q13153 whole entry): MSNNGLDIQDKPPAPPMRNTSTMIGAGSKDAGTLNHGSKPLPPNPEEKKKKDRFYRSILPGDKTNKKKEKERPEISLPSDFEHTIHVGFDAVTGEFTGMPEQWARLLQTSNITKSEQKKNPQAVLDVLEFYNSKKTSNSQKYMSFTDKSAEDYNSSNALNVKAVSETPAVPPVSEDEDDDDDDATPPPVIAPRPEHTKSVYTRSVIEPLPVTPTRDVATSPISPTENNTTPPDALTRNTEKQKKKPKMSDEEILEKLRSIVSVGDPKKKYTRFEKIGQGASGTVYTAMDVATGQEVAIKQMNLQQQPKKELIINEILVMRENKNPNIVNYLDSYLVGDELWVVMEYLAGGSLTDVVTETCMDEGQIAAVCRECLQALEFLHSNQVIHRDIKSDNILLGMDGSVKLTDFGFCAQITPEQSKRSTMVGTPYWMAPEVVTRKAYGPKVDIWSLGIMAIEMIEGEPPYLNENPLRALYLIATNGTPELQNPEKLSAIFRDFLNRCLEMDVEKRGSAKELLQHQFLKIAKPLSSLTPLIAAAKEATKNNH
Sequence of Ephrin type-B receptor 4 (Homo sapiens) (P54760 whole entry): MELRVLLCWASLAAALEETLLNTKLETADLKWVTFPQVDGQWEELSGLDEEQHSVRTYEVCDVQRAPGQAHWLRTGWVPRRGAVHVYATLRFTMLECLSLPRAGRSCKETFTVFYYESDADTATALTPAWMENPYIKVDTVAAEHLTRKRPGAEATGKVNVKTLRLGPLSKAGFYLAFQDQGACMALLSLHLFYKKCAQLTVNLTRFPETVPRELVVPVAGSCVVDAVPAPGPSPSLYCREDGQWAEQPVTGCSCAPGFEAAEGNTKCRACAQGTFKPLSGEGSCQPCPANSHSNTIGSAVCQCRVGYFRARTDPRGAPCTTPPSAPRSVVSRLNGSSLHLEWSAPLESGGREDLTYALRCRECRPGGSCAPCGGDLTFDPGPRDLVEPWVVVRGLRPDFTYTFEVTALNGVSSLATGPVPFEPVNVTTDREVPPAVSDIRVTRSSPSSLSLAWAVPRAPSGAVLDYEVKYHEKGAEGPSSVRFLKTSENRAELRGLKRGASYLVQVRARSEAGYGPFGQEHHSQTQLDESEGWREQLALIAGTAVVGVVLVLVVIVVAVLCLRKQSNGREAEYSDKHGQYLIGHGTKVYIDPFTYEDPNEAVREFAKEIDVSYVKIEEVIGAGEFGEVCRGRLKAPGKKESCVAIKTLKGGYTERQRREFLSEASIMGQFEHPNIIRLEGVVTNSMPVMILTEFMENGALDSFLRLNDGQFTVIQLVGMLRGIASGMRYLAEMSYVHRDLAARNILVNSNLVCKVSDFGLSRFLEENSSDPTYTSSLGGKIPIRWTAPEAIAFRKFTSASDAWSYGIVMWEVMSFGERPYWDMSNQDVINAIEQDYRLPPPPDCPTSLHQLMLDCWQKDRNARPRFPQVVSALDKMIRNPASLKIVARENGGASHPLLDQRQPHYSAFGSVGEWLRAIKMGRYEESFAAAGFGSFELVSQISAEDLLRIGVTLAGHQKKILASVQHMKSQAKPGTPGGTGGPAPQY
Sequence of Receptor-interacting serine/threonine-protein kinase 2 (Homo sapiens) (O43353 whole entry): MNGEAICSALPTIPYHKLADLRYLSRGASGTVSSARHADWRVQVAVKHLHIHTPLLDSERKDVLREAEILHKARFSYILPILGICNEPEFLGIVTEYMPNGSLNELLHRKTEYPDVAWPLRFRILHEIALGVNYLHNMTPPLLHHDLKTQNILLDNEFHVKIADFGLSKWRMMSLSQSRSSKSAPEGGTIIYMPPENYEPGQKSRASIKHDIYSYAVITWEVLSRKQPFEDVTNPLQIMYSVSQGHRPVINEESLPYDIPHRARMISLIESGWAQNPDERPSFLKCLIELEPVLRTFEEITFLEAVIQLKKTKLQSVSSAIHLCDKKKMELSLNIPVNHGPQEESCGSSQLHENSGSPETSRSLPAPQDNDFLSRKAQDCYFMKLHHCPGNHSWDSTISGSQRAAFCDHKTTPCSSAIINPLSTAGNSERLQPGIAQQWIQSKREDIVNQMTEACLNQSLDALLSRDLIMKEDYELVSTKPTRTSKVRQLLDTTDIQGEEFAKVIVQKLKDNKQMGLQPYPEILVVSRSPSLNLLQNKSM
Sequence of Mitogen-activated protein kinase kinase kinase kinase 4 (Homo sapiens) (O95819 2-1239 limits assumed): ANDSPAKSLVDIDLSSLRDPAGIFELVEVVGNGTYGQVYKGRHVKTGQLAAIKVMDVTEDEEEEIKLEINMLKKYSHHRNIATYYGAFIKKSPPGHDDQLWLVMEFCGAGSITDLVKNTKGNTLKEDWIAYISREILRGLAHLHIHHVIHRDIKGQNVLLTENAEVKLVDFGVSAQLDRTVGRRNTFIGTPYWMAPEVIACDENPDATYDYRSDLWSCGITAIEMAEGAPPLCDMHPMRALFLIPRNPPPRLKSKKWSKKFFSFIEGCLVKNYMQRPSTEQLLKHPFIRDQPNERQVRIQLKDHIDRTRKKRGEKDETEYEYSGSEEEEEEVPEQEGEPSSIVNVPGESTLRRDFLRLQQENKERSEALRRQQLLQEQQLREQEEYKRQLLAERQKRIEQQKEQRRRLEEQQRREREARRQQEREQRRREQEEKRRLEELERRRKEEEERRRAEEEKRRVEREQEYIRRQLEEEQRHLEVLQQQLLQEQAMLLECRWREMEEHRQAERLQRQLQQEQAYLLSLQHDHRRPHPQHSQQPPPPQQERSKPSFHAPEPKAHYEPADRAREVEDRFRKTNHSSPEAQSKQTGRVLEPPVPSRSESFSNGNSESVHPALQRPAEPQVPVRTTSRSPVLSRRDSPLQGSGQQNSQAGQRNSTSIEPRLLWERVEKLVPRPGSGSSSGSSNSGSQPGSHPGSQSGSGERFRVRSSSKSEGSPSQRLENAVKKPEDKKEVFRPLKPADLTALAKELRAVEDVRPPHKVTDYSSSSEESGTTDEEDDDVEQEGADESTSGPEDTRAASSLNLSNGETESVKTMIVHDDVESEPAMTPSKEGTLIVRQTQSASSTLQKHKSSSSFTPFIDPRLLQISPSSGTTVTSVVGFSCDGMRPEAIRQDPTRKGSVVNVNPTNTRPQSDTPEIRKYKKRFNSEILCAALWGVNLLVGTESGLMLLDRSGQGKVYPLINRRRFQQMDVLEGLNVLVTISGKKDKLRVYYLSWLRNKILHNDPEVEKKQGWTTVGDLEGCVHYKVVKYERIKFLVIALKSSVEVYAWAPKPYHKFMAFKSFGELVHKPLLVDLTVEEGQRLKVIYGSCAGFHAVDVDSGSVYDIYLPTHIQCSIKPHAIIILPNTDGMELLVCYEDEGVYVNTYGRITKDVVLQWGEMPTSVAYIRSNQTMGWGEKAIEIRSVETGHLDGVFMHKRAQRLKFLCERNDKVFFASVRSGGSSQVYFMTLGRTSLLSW
Sequence of High affinity nerve growth factor receptor (Homo sapiens) (P04629 33-796 limits assumed): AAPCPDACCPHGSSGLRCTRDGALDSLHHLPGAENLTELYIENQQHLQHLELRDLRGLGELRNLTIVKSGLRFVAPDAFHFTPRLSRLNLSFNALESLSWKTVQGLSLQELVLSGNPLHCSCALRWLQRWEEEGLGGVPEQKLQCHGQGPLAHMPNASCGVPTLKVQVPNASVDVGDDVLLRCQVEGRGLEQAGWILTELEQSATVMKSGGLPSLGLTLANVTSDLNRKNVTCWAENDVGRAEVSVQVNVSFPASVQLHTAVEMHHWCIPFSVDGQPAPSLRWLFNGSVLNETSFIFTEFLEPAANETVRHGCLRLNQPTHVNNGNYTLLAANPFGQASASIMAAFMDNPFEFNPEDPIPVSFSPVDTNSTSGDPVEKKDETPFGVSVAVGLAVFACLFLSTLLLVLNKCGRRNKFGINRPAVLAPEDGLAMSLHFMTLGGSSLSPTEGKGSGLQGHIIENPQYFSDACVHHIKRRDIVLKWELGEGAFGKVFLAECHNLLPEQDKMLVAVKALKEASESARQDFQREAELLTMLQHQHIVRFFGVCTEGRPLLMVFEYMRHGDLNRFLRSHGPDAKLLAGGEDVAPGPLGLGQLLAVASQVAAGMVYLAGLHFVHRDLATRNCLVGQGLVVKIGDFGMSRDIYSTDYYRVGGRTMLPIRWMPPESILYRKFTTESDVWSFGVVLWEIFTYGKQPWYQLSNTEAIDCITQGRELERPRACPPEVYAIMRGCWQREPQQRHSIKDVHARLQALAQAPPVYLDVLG
Sequence of RAC-alpha serine/threonine-protein kinase (Homo sapiens) (P31749 whole entry): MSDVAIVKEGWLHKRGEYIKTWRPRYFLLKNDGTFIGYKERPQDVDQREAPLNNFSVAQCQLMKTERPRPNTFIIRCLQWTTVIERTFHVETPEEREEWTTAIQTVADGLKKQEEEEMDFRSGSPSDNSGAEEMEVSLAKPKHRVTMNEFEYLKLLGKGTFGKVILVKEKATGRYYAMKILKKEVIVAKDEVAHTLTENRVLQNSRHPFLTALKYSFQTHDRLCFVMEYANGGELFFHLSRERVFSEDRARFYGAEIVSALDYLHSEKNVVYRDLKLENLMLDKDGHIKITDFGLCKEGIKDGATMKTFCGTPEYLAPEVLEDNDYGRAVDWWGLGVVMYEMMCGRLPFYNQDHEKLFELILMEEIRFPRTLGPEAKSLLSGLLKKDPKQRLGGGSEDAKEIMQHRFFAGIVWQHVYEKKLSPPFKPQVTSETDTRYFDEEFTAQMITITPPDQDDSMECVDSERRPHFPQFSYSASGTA
Sequence of Serine/threonine-protein kinase 3 (Homo sapiens) (Q13188 whole entry): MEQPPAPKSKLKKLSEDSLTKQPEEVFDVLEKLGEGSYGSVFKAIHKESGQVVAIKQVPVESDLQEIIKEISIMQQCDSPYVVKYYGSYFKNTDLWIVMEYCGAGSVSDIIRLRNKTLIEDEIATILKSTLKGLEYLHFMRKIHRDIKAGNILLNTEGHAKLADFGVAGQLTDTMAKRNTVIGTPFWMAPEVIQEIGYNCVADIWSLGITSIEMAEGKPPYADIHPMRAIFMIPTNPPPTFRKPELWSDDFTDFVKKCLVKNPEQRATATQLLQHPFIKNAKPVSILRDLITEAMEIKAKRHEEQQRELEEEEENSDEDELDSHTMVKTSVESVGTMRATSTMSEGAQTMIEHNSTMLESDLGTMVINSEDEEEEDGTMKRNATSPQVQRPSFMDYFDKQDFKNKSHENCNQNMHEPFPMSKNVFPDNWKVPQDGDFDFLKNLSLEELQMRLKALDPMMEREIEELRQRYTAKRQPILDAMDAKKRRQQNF

For orientation: inhibition means the change of the read-out against control, counted positive when it falls. A word on the GI50: it is the concentration that inhibits growth by half. Regarding `COc1cc2oc(-c3cccc(C(=O)Nc4ccc(C)cc4)c3)cc(=O)c2c(OC)c1OC`, the inhibition at 10 µM turned out to be 82% in the assay with COLO 205; 94% in the assay on A498; 72.5% in the assay on Renal cancer cell line; 70.1% in the assay with Malme-3M; 70.1% with MDA-MB-435; 108% with UACC-62. In the assay on Melanoma cell line, the inhibition at 10 µM worked out at 95.9%. The GI50 with HT-29 [1] was 2.55 µM. The inhibition entry in the assay on EKVX, in the assay on HCC 2998 and with NCI-H460 [23] was “Active” throughout. Moreover, the inhibition is 3.13% in [2]; 7.95% in assay [3]; 2.36% in assay [4]; 48.8% in [5]; 14.2% in assay [6]; 16.5% in [7]. Further, the inhibition in assay [9] amounted to 36.1%; in [17], 16%; in assay [19], 6.26%; in [21] it was 3.26%. Further, the inhibition entry in assay [8], in assay [10], in assay [11], in assay [13], in [14] and in assay [15] was “inactive” in each case. Further, the inhibition result in [16], in assay [18], in assay [20], in assay [22], in assay [24] and in assay [25] was “inactive” in each case. In addition, the Activity in the assay with HT-29 [12] came out at 59.1%.

For the molecule `COc1cc2oc(-c3cccc(C(=O)Nc4ccc(Cl)cc4)c3)cc(=O)c2c(OC)c1OC`, the inhibition at 10 µM stood at 98.3% in the assay on COLO 205; 82.9% with Renal cancer cell line; 56.9% in the assay on SK-OV-3; 85.8% in the assay with Malme-3M; 61.4% in the assay with TK-10; 62.5% in the assay on MDA-MB-435. The inhibition at 10 µM is 74.8% in the assay on NCI-H460 [26]; above 50% with SF-268; 74.8% with A549; 107% in the assay on UACC-62; 102% in the assay with Melanoma cell line. Further, the inhibition result in the assay on EKVX, with HCC 2998 and in the assay on NCI-H460 [23] was “Active” each time.
